Experiments:
Assay type in all cases: cell-based, human
[1] = tested on: mesothelioma (H226) cancer cell line; assay: 72 hr ATP luminescence cell proliferation inhibition assay, H226
Procedure: (§1) Proliferation inhibition was measured using a 72 hr ATP luminescence assay (Cheng et al., U.S. Pat. No. 8,394,922 B2 (2013)). The antiproliferative effects are reported as IC50's, i.e., the concentration of compound that produces a 50% inhibitory effect on cell proliferation.

[2] = tested on: gastric (stomach) cancer (N87) cell line; assay: 72 hr ATP luminescence cell proliferation inhibition assay, N87; conditions: N87 cells
Procedure: as §1

[3] = tested on: colon cancer (HCT116) cell line; assay: 72 hr ATP luminescence cell proliferation inhibition assay, HCT116
Procedure: as §1

[4] = tested on: ovarian cancer (OVCAR3) cell line; assay: 72 hr ATP luminescence cell proliferation inhibition assay, OVCAR3
Procedure: as §1

Compound	IC50 ([1]; H226 cells) [nM]	IC50 [2] [nM]	IC50 ([3]; HCT116 cells) [nM]	IC50 ([4]; OVCAR3 cells) [nM]	IC50 ([1]; Homo sapiens, NCI-H226, H226 cells) [nM]	IC50 ([2]; Homo sapiens) [nM]	IC50 ([3]; Homo sapiens, HCT-116, HCT116 cells) [nM]	IC50 ([4]; Homo sapiens, OVCAR-3, OVCAR3 cells) [nM]
COc1cc2c(cc1OCCCC(=O)Nc1ccc(C(=O)Nc3ccccc3)cc1)N=C[C@@H]1Cc3ccccc3CN1C2=O [(Ib-01)]	1.2	0.65	0.73	0.38	–	–	–	–
COc1cc2c(cc1OCCCC(=O)Nc1ccccc1C(=O)Nc1ccccc1)N=C[C@@H]1Cc3ccccc3CN1C2=O [(Ib-02)]	< 250	93	< 250	140	–	–	–	–
COc1cc2c(cc1OCCCC(=O)Nc1cccc(C(=O)Nc3ccccc3)c1)N=C[C@@H]1Cc3ccccc3CN1C2=O [(Ib-03)]	9.4	2.4	6.9	3.1	–	–	–	–
COc1cc2c(cc1OCCCC(=O)Nc1ncc(C(=O)Nc3ccccc3)s1)N=C[C@@H]1Cc3ccccc3CN1C2=O [(Ib-04)]	5.6	2.6	2.7	0.78	–	–	–	–
COc1cc2c(cc1OCCCC(=O)Nc1nc(C(=O)Nc3ccccc3)cs1)N=C[C@@H]1Cc3ccccc3CN1C2=O [(Ib-05)]	0.23	0.11	0.12	0.27	–	–	–	–
COc1cc2c(cc1OCCCC(=O)Nc1cc(C(=O)Nc3ccc(-n4cnc(C)n4)c(C(F)F)c3)n(C)c1)N=C[C@@H]1Cc3ccccc3CN1C2=O [(Ib-09)]	0.05	0.035	0.039	0.12	–	–	–	–
COc1cc2c(cc1OCCCC(=O)Nc1cc(C(=O)Nc3ccc(-n4cnc(C)n4)c(OCC(F)F)c3)n(C)c1)N=C[C@@H]1Cc3ccccc3CN1C2=O [(Ib-11)]	0.98	0.12	0.026	0.1	–	–	–	–
COc1cc2c(cc1OCCCC(=O)Nc1cc(C(=O)Nc3ccc(-n4cnc(C)n4)c(OC(F)F)c3)n(C)c1)N=C[C@@H]1Cc3ccccc3CN1C2=O [(Ib-12)]	0.059	0.027	0.023	0.074	–	–	–	–
COc1cc2c(cc1OCCCC(=O)Nc1cc(C(=O)Nc3ccc(-n4cnc(C)n4)c(OC)c3)n(C)c1)N=C[C@@H]1Cc3ccccc3CN1C2=O [(Ib-13)]	–	–	–	–	0.039	0.14	0.036	0.17
COc1cc2c(cc1OCCCC(=O)Nc1cc(C(=O)Nc3ccc(-c4cccc(C(=O)OC(C)C)c4)cc3)n(C)c1)N=C[C@@H]1Cc3ccccc3CN1C2=O [(Ib-14)]	0.67	0.049	0.07	0.18	–	–	–	–
COc1cc2c(cc1OCCCC(=O)Nc1cc(C(=O)Nc3ccc(-n4cnc(C(F)F)c4)c(OC)c3)n(C)c1)N=C[C@@H]1Cc3ccccc3CN1C2=O [(Ib-18)]	0.11	0.052	0.055	0.2	–	–	–	–
COc1cc2c(cc1OCCCC(=O)Nc1cc(C(=O)Nc3ccc(-n4cnc(Cl)c4)c(OC)c3)n(C)c1)N=C[C@@H]1Cc3ccccc3CN1C2=O [(Ib-19)]	0.11	0.045	0.038	0.23	–	–	–	–
COc1cc2c(cc1OCCCC(=O)Nc1cc(C(=O)Nc3ccc(-n4cnc(C)c4)c(OC)c3)n(C)c1)N=C[C@@H]1Cc3ccccc3CN1C2=O [(Ib-21)]	0.19	0.091	0.057	0.35	–	–	–	–
COc1cc2c(cc1OCCCC(=O)Nc1cc(C(=O)Nc3ccc(-n4ccnc4)cc3)n(C)c1)N=C[C@@H]1Cc3ccccc3CN1C2=O [(Ib-22)]	0.18	0.24	0.088	0.91	–	–	–	–
COc1cc2c(cc1OCCCC(=O)Nc1cc(C(=O)Nc3ccc(-c4cocn4)cc3)n(C)c1)N=C[C@@H]1Cc3ccccc3CN1C2=O [(Ib-23)]	0.036	0.014	0.007	0.022	–	–	–	–
COc1cc2c(cc1OCCCC(=O)Nc1cc(C(=O)Nc3cnn(-c4ccccc4)c3)n(C)c1)N=C[C@@H]1Cc3ccccc3CN1C2=O [(Ib-24)]	0.053	0.074	0.008	0.16	–	–	–	–
COC(=O)c1nc(-c2ccc(NC(=O)c3cc(NC(=O)CCCOc4cc5c(cc4OC)C(=O)N4Cc6ccccc6C[C@H]4C=N5)cn3C)cc2)cn1C [(Ib-25)]	0.15	0.084	0.057	0.35	–	–	–	–
C=CCOc1cc(NC(=O)c2cc(NC(=O)CCCOc3cc4c(cc3OC)C(=O)N3Cc5ccccc5C[C@H]3C=N4)cn2C)ccc1-n1cnc(C)n1 [(Ib-27)]	0.067	0.021	0.02	0.15	–	–	–	–
COc1cc2c(cc1OCCCC(=O)Nc1cc(C(=O)Nc3cc(C)c(-n4cncn4)c(C)c3)n(C)c1)N=C[C@@H]1Cc3ccccc3CN1C2=O [(Ib-28)]	0.72	0.18	0.18	0.4	–	–	–	–
COc1cc2c(cc1OCCCC(=O)Nc1cc(C(=O)Nc3ccc(-n4cncn4)c(OC)c3)n(C)c1)N=C[C@@H]1Cc3ccccc3CN1C2=O [(Ib-29)]	0.1	0.042	0.041	0.16	–	–	–	–
COc1cc2c(cc1OCCCC(=O)Nc1cc(C(=O)Nc3ccc(-c4ncc[nH]4)cc3)n(C)c1)N=C[C@@H]1Cc3ccccc3CN1C2=O [(Ib-30)]	0.66	0.37	0.1	0.76	–	–	–	–
COc1cc2c(cc1OCCCC(=O)Nc1cc(C(=O)Nc3ccc4c(c3)OCc3nncn3-4)n(C)c1)N=C[C@@H]1Cc3ccccc3CN1C2=O [(Ib-31)]	0.28	0.23	0.078	0.94	–	–	–	–
COc1cc2c(cc1OCCCC(=O)Nc1cc(C(=O)Nc3ccc4c(c3)-n3cnnc3CO4)n(C)c1)N=C[C@@H]1Cc3ccccc3CN1C2=O [(Ib-32)]	3.1	0.41	0.3	1.6	–	–	–	–
COc1cc2c(cc1OCCCC(=O)Nc1cc(C(=O)Nc3cccc(OCc4ccccc4)n3)n(C)c1)N=C[C@@H]1Cc3ccccc3CN1C2=O [(Ib-36)]	22	3.7	3.7	2.2	–	–	–	–
COc1cc2c(cc1OCCCC(=O)Nc1cc(C(=O)Nc3cnc4c(c3)ncn4C)n(C)c1)N=C[C@@H]1Cc3ccccc3CN1C2=O [(Ib-37)]	1.2	1.6	1.7	5.2	–	–	–	–
COC(=O)c1cc(NC(=O)CCCOc2cc3c(cc2OC)C(=O)N2Cc4ccccc4C[C@H]2C=N3)cn1C [(Ib-38)]	1.1	1.1	1.1	0.66	–	–	–	–

The next lines start with results.

IC50 ([1]; H226 cells) [nM]	IC50 [2] [nM]	IC50 ([3]; HCT116 cells) [nM]	IC50 ([4]; OVCAR3 cells) [nM]	Compound	IC50 ([1]; Homo sapiens, NCI-H226, H226 cells) [nM]	IC50 ([2]; Homo sapiens) [nM]	IC50 ([3]; Homo sapiens, HCT-116, HCT116 cells) [nM]	IC50 ([4]; Homo sapiens, OVCAR-3, OVCAR3 cells) [nM]
< 0.004	0.009	0.008	0.031	COc1cc2c(cc1OCCCC(=O)Nc1cc(C(=O)Nc3ccc(-n4cnc(C)n4)nc3)n(C)c1)N=C[C@@H]1Cc3ccccc3CN1C2=O [(Ib-06)]	–	–	–	–
0.02	0.073	0.018	0.024	COc1cc2c(cc1OCCCC(=O)Nc1cc(C(=O)Nc3ccc(-n4cnc(Cl)c4)nc3)n(C)c1)N=C[C@@H]1Cc3ccccc3CN1C2=O [(Ib-07)]	–	–	–	–
0.007	0.006	< 0.004	0.013	COc1cc2c(cc1OCCCC(=O)Nc1cc(C(=O)Nc3ccc(-n4cnc(C)n4)c(F)c3)n(C)c1)N=C[C@@H]1Cc3ccccc3CN1C2=O [(Ib-08)]	–	–	–	–
0.018	0.026	0.014	0.037	COc1cc2c(cc1OCCCC(=O)Nc1cc(C(=O)Nc3ccc(-n4cnc(C(F)F)n4)c(OC)c3)n(C)c1)N=C[C@@H]1Cc3ccccc3CN1C2=O [(Ib-10]	–	–	–	–
< 0.004	< 0.004	0.002	< 0.004	COc1ccc(-c2ccc(NC(=O)c3cc(NC(=O)CCCOc4cc5c(cc4OC)C(=O)N4Cc6ccccc6C[C@H]4C=N5)cn3C)cc2)cc1 [(Ib-15)]	–	–	–	–
< 0.004	< 0.004	< 0.004	0.12	COc1cc2c(cc1OCCCC(=O)Nc1cc(C(=O)Nc3ccc(-n4cnc(C)n4)cc3)n(C)c1)N=C[C@@H]1Cc3ccccc3CN1C2=O [(Ib-16)]	–	–	–	–
< 0.004	0.009	0.011	0.028	COc1cc2c(cc1OCCCC(=O)Nc1cc(C(=O)Nc3ccc(-n4cncn4)cc3)n(C)c1)N=C[C@@H]1Cc3ccccc3CN1C2=O [(Ib-17)]	–	–	–	–
0.031	0.014	0.027	0.1	COc1cc2c(cc1OCCCC(=O)Nc1cc(C(=O)Nc3ccc(-n4cnc(Cl)c4)c(F)c3)n(C)c1)N=C[C@@H]1Cc3ccccc3CN1C2=O [(Ib-20)]	–	–	–	–
< 0.004	< 0.004	0.025	0.44	COc1cc2c(cc1OCCCC(=O)Nc1cc(C(=O)Nc3ccc(-n4cnc(C)n4)c(O)c3)n(C)c1)N=C[C@@H]1Cc3ccccc3CN1C2=O [(Ib-26)]	–	–	–	–
< 0.004	< 0.004	< 0.004	0.052	COc1cc2c(cc1OCCCC(=O)Nc1cc(C(=O)Nc3ccc4c(c3)oc3ccccc34)n(C)c1)N=C[C@@H]1Cc3ccccc3CN1C2=O [(Ib-33)]	–	–	–	–
< 0.004	0.006	< 0.004	0.025	COc1cc2c(cc1OCCCC(=O)Nc1cc(C(=O)Nc3ccc4c(c3)Cc3cc(N)ccc3-4)n(C)c1)N=C[C@@H]1Cc3ccccc3CN1C2=O [(Ib-34)]	–	–	–	–
< 0.004	< 0.004	0.047	0.11	COc1ccc(NC(=O)c2cc(NC(=O)CCCOc3cc4c(cc3OC)C(=O)N3Cc5ccccc5C[C@H]3C=N4)cn2C)nc1 [(Ib-35)]	–	–	–	–
0.006	0.002	0.003	0.011	COC(=O)c1cc(-c2ccc(NC(=O)c3cc(NC(=O)CCCOc4cc5c(cc4OC)C(=O)N4Cc6ccccc6C[C@H]4C=N5)cn3C)cc2)cn1C [(Ib-39)]	–	–	–	–
